Common to all, as to type: physicochemical
Data set [1] can be described thus: Storage stability of diluted dihydrocapsiate emulsion with added emulsifier DECAGLYN 1-O (HPLC capsinoid content). As for the experimental part:
A dihydrocapsiate emulsion composition was prepared according to the method described in Example 1 of JP Patent Kokai Publication No. JP-P2003-192576A. Briefly, decaglycerin monooleate (Nikko Chemical Co.; trade name, DECAGLYN 1-O) (21 g), glycerin (193 g) and water (26 g) were mixed, dissolved under heating at 90-95° C., and cooled to 30° C. Synthetic dihydrocapsiate (8.5 g) and sucrose acetate isobutyrate (SAIB) (51 g) were added and dissolved under heating at 85-90° C., and the mixture was emulsified at 30-90° C. to prepare a capsinoid-containing emulsion composition (pH 3.6). The resulting emulsion composition was diluted with up to 1000 parts of 0.01M citrate buffer (pH 3.5) supplemented with sucrose to obtain an additive-free sample. On the other hand, the composition was diluted with up to 1000 parts of 0.01M citrate buffer (pH 3.5) supplemented with sucrose to which was added 0.014%, 0.114% emulsifier (Nikko Chemical Co.; DECAGLYN 1-0) respectively, to prepare emulsion-supplemented samples. The resulting samples were sterilized by heating for 20 minutes at 44° C. and stored.
Every one week after storage, the capsinoid content was determined. Analysis of the capsinoid content was performed by high performance liquid chromatography (HPLC) after dilution with an ethyl acetate/methanol (6:4) mixture.

Data set [2] can be described thus: Storage stability of diluted dihydrocapsiate emulsion with a variety of emulsifiers added. The settings on record: 8 emulsifiers of Table 1 other than DECAGLYN 1-O, each at 0.114% in 0.01M citrate buffer (pH 3.5) with sucrose; 1000 parts dilution; FIG. 2. On the procedure: In the same manner as in Example 1, a dihydrocapsiate containing emulsion composition was diluted with up to 1000 parts of 0.01M citrate buffer (pH 3.5) supplemented with sucrose and the stability of storage was evaluated. Prior to addition of the dihydrocapsiate containing emulsion composition 8 types of emulsifiers were added to 0.01M citrate buffer (pH 3.5) supplemented with sucrose so as to be 0.114%, and the difference of the stability as a function of the emulsifier added was evaluated.

The nature of data set [3]: Storage stability of dihydrocapsiate emulsion mixed with emulsifier in advance or diluted with emulsifier-containing buffer. Conditions: stored at 24° C. and 44° C. As for the experimental part: Into a capsinoid emulsion composition prepared in Example 1 an emulsifier (Nikko Chemical Co., Decaglyn 1-O) was blended at a ratio of 10 to 3 under heating (50-70° C.) to prepare a composition. The resulting composition was diluted with up to 230 parts of 0.01M citrate buffer (pH 3.5) supplemented with sucrose to prepare a mixture of the emulsion composition and the emulsifier. On the other hand, an additive-free sample prepared by diluting the capsinoid emulsion composition (prepared in Example 1) with up to 300 parts of the same buffer was diluted with up to 300 parts of 0.01M citrate buffer (pH 3.5) supplemented with sucrose to which was added an emulsifier (Nikko Chemical Co., DECAGLYN 1-0) in advance at a rate of 0.10%, to prepare a sample containing an emulsifier. In either sample, the content of capsinoid after dilution with the buffer correspond to 0.33% of the initial amount of capsinoid existing in the emulsion composition. Thus prepared samples were sterilized under heat for 20 minutes and stored at 24° C. and 44° C.
In periodical sampling, the content of capsinoid was determined. The content of capsinoid was analyzed by high performance liquid chromatography (HPLC) after dilution with a mixture of ethyl acetate and methanol (6:4).

Data set [4] can be described thus: Storage stability of diluted dihydrocapsiate emulsion with a variety of high molecular weight components added. Conditions: 500 parts dilution, FIG. 3. As for the experimental part: In the same manner as in Example 2, a dihydrocapsiate containing emulsion composition was diluted with up to 500 parts of 0.01M citrate buffer (pH 3.5) supplemented with sucrose and the stability of storage was evaluated. Prior to addition of the dihydrocapsiate containing emulsion composition 8 types of high molecular weight components were added to 0.01M citrate buffer (pH 3.5) supplemented with sucrose, and the difference of the stability as a function of the high molecular weight components added was evaluated. […] In regard to the amount of high molecular weight component to be added, xanthan gum was reduced to 0.1% because it gives high viscosity in a small quantity. The amount of other high molecular weight components added than xanthan gum was fixed at 0.5%.

Turning to dihydrocapsiate, the “storage stability of dihydrocapsiate” value in data set [1] (emulsion composition diluted up to 1000 parts with 0.01M citrate buffer (pH 3.5) with sucrose, 0.014% or 0.114% DECAGLYN 1-O added vs additive-free, FIG. 1) is reported as “increased with increase of the amount of emulsifier added”.

For the compound `COc1cc(COC(=O)CCCCCCC(C)C)ccc1O` [dihydrocapsiate], the “stability of dihydrocapsiate during storage” value in data set [2] was “improve the stability”. Further, the “rate of residual dihydrocapsiate relative to emulsifier-free case” value in data set [1] (0.114% emulsifier (DECAGLYN 1-O) added, about one month after storage, citrate buffer pH 3.5) was at least 2 times. The “storage stability of dihydrocapsiate” value in data set [3] (FIG. 4A: emulsion composition diluted up to 300 parts with buffer to which 0.10% DECAGLYN 1-O was previously added) is recorded as “improves the storage stability”; in data set [3] (FIG. 4B: emulsion composition pre-blended with Decaglyn 1-O (10 to 3), diluted up to 230 parts with buffer containing no emulsifier) it was “improves the storage stability”; in data set [4] (HM pectin 0.5% in 0.01M citrate buffer (pH 3.5) with sucrose), “Improvement of the storage stability”; in data set [4] (carboxymethylcellulose sodium (CMC sodium) 0.5% in 0.01M citrate buffer (pH 3.5) with sucrose) it was “Improvement of the storage stability”; in data set [4] (carrageenan 0.5% in 0.01M citrate buffer (pH 3.5) with sucrose), “Improvement of the storage stability”.
